Data on 3 compounds can be found in patent US11844846B2, “Styrylbenzothiazole derivatives and uses in imaging methods” (Emory University, priority 2018, dated 2023).

For data set [1], the target named is α-Syn PFFs (Homo sapiens, UniProt P37840). Nature of the data set: fluorescence spectroscopy titration with α-Syn PFFs. Type of data set: binding. The following applies: for binding to α-Syn PFFs by fluorescent emission intensity: 0.08 μM fibrils, 5 μM small molecule, result in words. As for the experimental part: (§1) A fluorescent titration assay was conducted. The fluorescent emission intensities were determined with 0.08 μM of various fibrils in the presence of 5 μM of the small molecules.
(§2) To further investigate the selected compounds binding activities with α-Syn PFFs, fluorescence spectroscopy titrations were conducted to quantitatively measure compounds emission intensity when interacting with different concentrations of α-Syn PFFs. The UV spectrum of each compound was determined and selected for the optimal wavelength to conduct the fluorescence spectroscopic studies.

The target in data set [2] is T1, Aβ PFFs (Homo sapiens, UniProt P05067).
T1 construct: counter-screening with Tau and Aβ PFFs
As to the kind of experiment: fluorescence spectroscopy titration with Aβ PFFs. The format is binding. The following applies: fluorescence spectroscopy titration; read-out: binding constant Kd for Aβ PFFs. The method, then: as §1, §2

Data set [3] concerns the target T2, Tau PFFs (Homo sapiens, UniProt P10636). As to the kind of experiment: fluorescence spectroscopy titration with Tau PFFs. The format is binding. The following applies: fluorescence spectroscopy titration; read-out: binding constant Kd for Tau PFFs. The method, then:
as §1, §2

Data set [4] has as its system α-Syn aggregated neurons. As to the kind of experiment: neuronal α-Syn aggregation model, fluorescent microscopy. Type of data set: cell-based. The following applies: primary cultured neurons, AAV-α-Syn plus α-Syn PFFs. The source says:
(§3) A series of derivatives were synthesized by including an amino group and a methyl group on benzothiazole to increase the brain permeability and fluorescent signals. The derivatives were subsequently subjected to α-Syn PFFs binding assay and counter-screening with Tau and Aβ PFFs. […] These compounds were screened on the neuronal α-Syn, Tau and Aβ aggregation model for the binding selectivity. Primary cultured neurons were infected with AAV-α-Syn, AAV-Tau FL for 7 days, then treated with α-Syn, Tau or Aβ PFFs. In a few days, the positive compounds were added in the primary neurons with indicated aggregates and analyzed under fluorescent microscopy.
(§4) Primary cultured neurons were infected with AAV-α-Syn, AAV-Tau FL or AAV-APP fragment virus for 7 days, and then treated with α-Syn, Tau or Aβ PFFs by following the described protocols (Volpicelli-Daley et al., 2014). In a few days, the positive compounds were added in the primary neurons with indicated aggregation.

Data set [5] deals with neurons with Aβ or Tau aggregates. As to the kind of experiment: neuronal Aβ and Tau aggregation models, fluorescent microscopy. Type of data set: cell-based. The following applies: primary cultured neurons.
Description: as §3, §4

Data set [6] has as its target T3, Lewy bodies in α-Syn A53T virus injected WT mice brain slices (Homo sapiens, UniProt P37840, A53T).
T3 construct: from tissue; host or cells: brain (substantia nigra) of wild-type mice injected with α-Syn A53T virus
As to the kind of experiment: staining of mouse brain slices with Lewy bodies. Type of data set: binding. As for the experimental part:
(§5) To further explore whether the positive compounds selectively bind to the Lewy bodies, α-Syn A53T patient-derived mutant virus injected WT mice brain slices were employed. These mice display extensive Lewy bodies in the SN.
(§6) To further explore whether the positive compounds selectively bind to the Lewy bodies, a α-Syn A53T patient-derived mutant virus was injected into WT mice brain slices. These mice display extensive Lewy bodies in the Substantial nigra (SN). Moreover, P301S mice expressed neurofibrillary tangles (NFT). The Lewy bodies were labeled with p-α-Syn S129 antibody and the positive aggregates were also labeled with the fluorescent signals from the small molecules. […] However, it was worth noting that almost none of the tested compounds were reactive with NFT.

The target of data set [7] is T4, senile plaques in 5×FAD and 3×Tg mice brain sections (Homo sapiens, UniProt P05067).
T4 construct: Aβ-enriched senile plaques; from tissue; host or cells: brain sections of 5×FAD and 3×Tg mice
As to the kind of experiment: staining of mouse brain sections with senile plaques. The format is binding.

The subject of data set [8] is NFT in Tau P301S and 3×Tg mice brain sections. Nature of the data set: staining of mouse brain sections with NFT. Type of data set: binding. As for the experimental part:
as §5, §6

Data set [9] has as its target T5, LBs and LNs in DLB and MSA patient brains (Homo sapiens, UniProt P37840).
T5 construct: from tissue; host or cells: brain sections of DLB and MSA patients
As to the kind of experiment: ex vivo screening on DLB and MSA patient brain sections. The format is binding. The source says: (§7) Ex vivo screening was extended into human DLB, MSA and AD patient samples. […] Since there are detectable α-Syn aggregates in AD patient brains, these compounds colocalized with p-S129 positive α-Syn inclusions.
(§8) The ex vivo screening was extended into human DLB, MSA and AD patient samples. Neurodegenerative disease of DLB (dementia with Lewy Bodies) and MSA belongs to synucleinopathies with well-defined Lewy bodies.

The test system of data set [10] is senile plaques or NFT in AD. Nature of the data set: ex vivo screening on AD patient brain sections. Type of data set: binding, human.
Description: as §7, §8

The nature of data set [11]: plasma-brain ratio study / in vivo PK of EU compounds. On the set-up: species or system mouse. The following applies: for B/P: single animals; for brain permeability: i.v. As for the experimental part: To address whether the selected compounds penetrate the brain, a plasma-brain ratio study was performed with EU04-03A, EU05-02A and EU05-02B.
To test whether these compounds are brain permeable in vivo, in vivo PK profiling was conducted to determine brain exposure.

Data set [12] deals with pre-formed fibrils (PFFs) of α-Synuclein (Homo sapiens, UniProt P37840). Nature of the data set: in vitro binding assay with α-Syn PFFs. The following applies: fibrils binding assay, result in words.
Description: (§9) The general strategy that was employed to screen the candidate Lewy body PET agents is summarized as follows: (a) To perform in vitro binding assay with Pre-formed fibrils (PFFs) of α-Syn and counter-screening with Tau and Aβ PFFs; (b) To test the positive compounds in the neuronal models with aggregated α-Syn, Tau or […]; (c) To screen with the brain slides from α-Syn mutant A53T virus injected WT mice, and counter-screen with aged 3×Tg (containing both senile plaques and NFT), and aged Tau P301S (NFT) brain sections; (d) to screen the patient brain sections from DLB and MSA against AD; (e) To determine the binding kinetics between α-Syn PFFs and positive hits; (f) To determine the candidates in vivo brain/plasma (B/P) ratios and the brain permeability; (g) To determine the in vivo PET images in α-Syn A53T with candidates and compare its images in 5XFAD and Tau P301S mice.
(§10) To perform in vitro binding assay, commercial compounds were screened (See FIG. 7B).
as §3
To perform in vitro binding assay, compounds were screened. […] An amino group and a methyl group in the benzothazole were added to increase its brain permeability and fluorescent signals. […] The synthesized derivatives were subsequently subjected to the α-Syn PFFs binding and counter-screen of Tau and Aβ PFFs as described above.

Data set [13] addresses T1, Aβ PFFs. Nature of the data set: counter-screening with Aβ PFFs. The following applies: result in words. Type of data set: binding.
Description: as §9, §10
(§11) A series of derivatives were synthesized by including an amino group and a methyl group on benzothiazole to increase the brain permeability and fluorescent signals. The derivatives were subsequently subjected to α-Syn PFFs binding assay and counter-screening with Tau and Aβ PFFs. […] In a few days, the positive compounds were added in the primary neurons with indicated aggregates and analyzed under fluorescent microscopy. […]

The target in data set [14] is T2, Tau PFFs. As to the kind of experiment: counter-screening with Tau PFFs. The format is binding. The following applies: result in words.
Description: as §9, §10, §11

Data set [15] can be described thus: in vivo PK study of compound 13 decaying into F0502B. The following applies: after injection of compound 13, 15 min to 90 min.

Several values for one entry are separate records, joined by “and”; a condition that tells them apart may be missing. Identical values can stand only once. Entries after “also recorded” stand apart in the source; their conditions may differ. Like-named read-outs stand apart in the source and are kept apart here.

T2 sequence (P10636 whole entry): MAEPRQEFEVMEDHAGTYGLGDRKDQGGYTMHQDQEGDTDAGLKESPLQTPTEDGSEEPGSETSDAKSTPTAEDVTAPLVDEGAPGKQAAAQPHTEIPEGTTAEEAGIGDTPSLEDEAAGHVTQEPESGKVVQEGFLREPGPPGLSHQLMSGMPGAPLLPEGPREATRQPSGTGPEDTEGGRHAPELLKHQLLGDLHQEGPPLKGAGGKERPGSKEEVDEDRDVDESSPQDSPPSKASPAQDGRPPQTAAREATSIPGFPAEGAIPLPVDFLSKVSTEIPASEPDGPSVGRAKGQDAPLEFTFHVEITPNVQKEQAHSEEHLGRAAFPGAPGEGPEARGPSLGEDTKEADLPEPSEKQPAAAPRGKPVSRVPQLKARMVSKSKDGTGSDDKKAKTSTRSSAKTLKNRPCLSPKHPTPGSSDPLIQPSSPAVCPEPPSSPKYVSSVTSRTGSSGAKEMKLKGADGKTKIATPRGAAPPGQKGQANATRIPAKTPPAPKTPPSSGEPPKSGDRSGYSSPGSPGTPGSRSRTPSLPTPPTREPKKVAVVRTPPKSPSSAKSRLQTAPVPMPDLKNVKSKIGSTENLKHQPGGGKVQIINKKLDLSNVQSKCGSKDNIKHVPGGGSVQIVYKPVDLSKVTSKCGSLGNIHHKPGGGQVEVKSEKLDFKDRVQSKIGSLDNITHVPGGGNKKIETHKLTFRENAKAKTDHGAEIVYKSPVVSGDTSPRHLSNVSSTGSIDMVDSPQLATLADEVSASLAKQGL
T1 sequence (P05067 672-713 limits assumed): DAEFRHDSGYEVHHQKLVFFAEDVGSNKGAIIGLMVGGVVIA
T4 sequence (P05067 672-713 limits assumed): as above

Take `Cc1cc2nc(/C=C/c3ccc(O)c(Br)c3)sc2cc1N(C)C` [EU-005-02B, (E)-2-bromo-4-(2-(6-(dimethylamino)-5-methylbenzo[d]thiazol-2-yl)vinyl)phenol]: the “binding to α-Syn PFFs by fluorescent emission intensity” value in data set [1] was “stronger binding affinity toward α-Syn PFFs versus Tau and Aβ PFFs; also recorded: dose-dependent escalation of the emission intensities”; in data set [1] (listed as EU05-02B) it was “partial binding selectivity toward α-Syn PFFs versus Aβ and Tau fibrils”; in data set [1] (listed as EU-05-02B), “showed specific association with the PFFs”. Also, the Kd (as a rule, the constant that tells how readily two partners part at equilibrium) in data set [1] (fluorescence spectroscopy titration, read-out: binding constant Kd for α-Syn PFFs) was 0.17 µM; in data set [2], 0.85 µM; in [3] it was 3.7 µM. Moreover, the “fluorescent signal in α-Syn aggregated neurons” value in data set [4] is given as “positive for selective binding”; in data set [4] (listed as EU05-02B), “positive signals in α-Syn aggregated neurons”. Also, the “fluorescent signal in neurons with Aβ or Tau aggregates” value in [5] was “negligible effects in neurons with Aβ or Tau aggregates”. In [6], the “staining of Lewy bodies (p-α-Syn S129 positive)” value was “concrete aggregates were also stained with the fluorescent signals from EU05-02B”. Besides, the “staining of senile plaques” value in data set [7] is on record as “barely recognized senile plaques or NFT”. For the same compound, the “staining of NFT” value in data set [8] is recorded as “barely recognized senile plaques or NFT”. For the same compound, the “staining of LBs and LNs” value in data set [9] is “robust signals with LBs and LNs”; in data set [9] (listed as EU05-02B), “robust signals with LBs and LNs in DLB and MSA patient brains”. Moreover, the “staining of senile plaques or NFT (Aβ, AT8 positive aggregates)” value is “barely co-stained with anti-AD or AT8 positive aggregate signals” in data set [10] and “did not stain senile plaques or NFT in AD” in [10] (listed as EU05-02B). The B/P was 2.00 and 2.47 and 1.16 in data set [11] (Male ICH Mouse, 5 mg/kg IV, 0.50 h, 5 mg/kg); 2.72 and 6.12 and 4.48 in [11] (Male ICH Mouse, 5 mg/kg IV, 1.00 h, 5 mg/kg); 5.13 and 13.88 and 25.06 in data set [11] (Male ICH Mouse, 5 mg/kg IV, 2.00 h, 5 mg/kg); 29.74 and 5.63 and 21.06 in data set [11] (Male ICH Mouse, 5 mg/kg IV, 4.00 h, 5 mg/kg); 57.33 and 78.00 and 36.00 in data set [11] (Male ICH Mouse, 5 mg/kg IV, 8.00 h, 5 mg/kg). For the same compound, the Kp at 0.5 h in data set [11] (male, ICH, mouse, brain, iv, 5 mg/kg, Male ICH Mouse, 5 mg/kg IV, 0.50 h, read-out: B/P Mean) was 1.88. Besides, the Kp at 1 h in [11] (male, ICH, mouse, brain, iv, 5 mg/kg, Male ICH Mouse, 5 mg/kg IV, 1.00 h, read-out: B/P Mean) worked out at 4.44. The Kp at 2 h in [11] (male, ICH, mouse, brain, iv, 5 mg/kg, Male ICH Mouse, 5 mg/kg IV, 2.00 h, read-out: B/P Mean) amounted to 14.7. For the same compound, the Kp at 4 h in data set [11] (male, ICH, mouse, brain, iv, 5 mg/kg, Male ICH Mouse, 5 mg/kg IV, 4.00 h, read-out: B/P Mean) came out at 18.8. Moreover, the Kp at 8 h in data set [11] (male, ICH, mouse, brain, iv, 5 mg/kg, Male ICH Mouse, 5 mg/kg IV, 8.00 h, read-out: B/P Mean) was determined as 57.1. The “in vivo half-life / decay” value in data set [11] (mice, i.v. 5 mg/kg, result in words) is listed as “long in vivo half-life”. In addition, the brain permeability entry is “time-dependent escalation of B/P ratios; also recorded: brain permeability is much higher as compared to EU-005-02A” in data set [11] (mice, result in words); “swiftly penetrated the brain and exhibited much higher brain permeability compared to EU05-02A” in data set [11] (mice, result in words, listed as EU05-02B).
Regarding `COc1ccc(/C=C/c2nc3cc(C)c(N(C)CCOCCF)cc3s2)cc1Br` [compound 8, (E)-2-(3-bromo-4-methoxystyryl)-N-(2-(2-fluoroethoxy)ethyl)-N,5-dimethylbenzo[d]thiazol-6-amine], the “binding activity toward α-Syn PFFs” value in data set [12] is “somehow interacted with both α-Syn and Aβ”. The “binding toward Aβ PFFs” value in [13] is “somehow interacted with both α-Syn and Aβ”. Further, the “binding toward Tau PFFs” value in data set [14] is on record as “not Tau fibrils”.
With `Cc1cc2nc(/C=C/c3ccc(OC(=O)N(C)C)c(Br)c3)sc2cc1N(C)CCOCCF` [compound 13, (E)-2-bromo-4-(2-(6-((2-(2-fluoroethoxy)ethyl)(methyl)amino)-5-methylbenzo[d]thiazol-2-yl)vinyl)phenyl dimethylcarbamate], the “binding activity toward α-Syn PFFs” value in data set [12] is given as “did not specifically interact with α-Syn, Aβ or Tau aggregates”. Moreover, the “binding toward Aβ PFFs” value in [13] is reported as “did not specifically interact with α-Syn, Aβ or Tau aggregates”. Further, the “binding toward Tau PFFs” value in data set [14] is “did not specifically interact with α-Syn, Aβ or Tau aggregates”. In addition, the plasma concentration course entry in data set [15] was “decreased in the plasma”.
